{"source": "patent US20120165319A1", "about": "“INHIBITORS OF INTERLEUKIN-1 BETA CONVERTING ENZYME” (VERTEX PHARMACEUTICALS INCORPORATED, priority 1995, published 2012)", "key": {"IL-1β, human whole blood": {"test_system": "IL-1β, human whole blood", "test": "Whole blood assay for IL-1β production", "type": "cell-based", "settings": "Homo sapiens, * = values obtained upon reassay; read-out: Whole human blood IC50", "summary_of_the_method": "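Human whole blood collected on Na2EDTA was treated with serially diluted compound in saline and then stimulated with LPS at 5.0 ng/ml final, for 16-18 h at 30 °C, in duplicate or triplicate. Plasma IL-1β was measured by ELISA at 1:200 dilution.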"}, "[1]": {"test": "Pharmacokinetic studies in the mouse (i.v. clearance, plasma levels)", "type": "in vivo", "settings": "CD-1, plasma, iv, mouse, 25 mg/kg", "method": "Pharmacokinetic Studies in the Mouse\nSample Preparation and Dosing\nCompounds were dissolved in sterile TRIS solution (0.02M or 0.05M) at a concentration of 2.5 mg/ml. Where necessary to ensure a complete solution, the sample was first dissolved in a minimum of dimethylacetamide (maximum of 5% of total solution volume) then diluted with the TRIS solution.\nThe drug solution was administered to CD-1 mice (Charles River Laboratories—26-31 g) via the tail vein at a dose volume of 10 ml/kg giving a drug dose of 25 mg/kg.\nMice were dosed in groups of 5 for each timepoint (generally from 2 minutes to 2 hours) then at the appropriate time the animals were anaesthetised with halothane and the blood collected into individual heparinized tubes by jugular severance. The blood samples were cooled to 0° C. then the plasma separated and stored at −20° C. until assayed.\nDrug concentration in the plasma samples were determined by HPLC analysis with UV or MS (ESP) detection. Reverse phase chromatography was employed using a variety of bonded phases from C1 to C18 with eluents composed of aqueous buffer/acetonitrile mixtures run under isocratic conditions.\nQuantitation was by external standard methods with calibration curves constructed by spiking plasma with drug solutions to give concentrations in the range of 0.5 to 50 μg/ml.\nPrior to analysis the plasma samples were deproteinated by the addition of acetonitrile, methanol, trichloroacetic acid or perchloric acid followed by centrifugation at 10,000 g for 10 minutes. Sample volumes of 20 μl to 50 μl were injected for analysis.\nThe drug was dissolved in sterile 0.02M Tris to give a 2.5 mg/ml solution which was administered to […] of 5 male CD-1 mice via the tail vein at a dose of 25 mg/kg. At each of the following timepoints: 2, 5, 10, 15, 20, 30, 45, 60, 90 and 120 minutes a group of animals was anaesthetised and the blood collected into heparinized tubes. After separation the plasma was stored at −20° C. until assayed.\nAliquots of plasma (150 μl) were treated with 5% perchloric acid (5 μl) then mixed by vortexing and allowed to stand for 90 minutes prior to centrifugation. The resulting supernatant was separated and 20 μl was injected for HPLC analysis.\nAliquots of plasma (100 μl) were diluted with acetonitrile (100 μl) then mixed by vortexing for 20 seconds before centrifugation for 10 minutes. The resulting supernatant was separated and 20 μl was injected for HPLC analysis."}, "ICE": {"target": "T1, ICE (Homo sapiens, UniProt P29466)", "T1 sequence (P29466 120-297 limits assumed)": "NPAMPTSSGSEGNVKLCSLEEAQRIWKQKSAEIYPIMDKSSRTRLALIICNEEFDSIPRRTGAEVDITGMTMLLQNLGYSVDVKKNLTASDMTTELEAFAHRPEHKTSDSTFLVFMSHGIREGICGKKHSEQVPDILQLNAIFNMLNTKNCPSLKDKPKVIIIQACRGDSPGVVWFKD", "T1 sequence (P29466 317-404 limits assumed)": "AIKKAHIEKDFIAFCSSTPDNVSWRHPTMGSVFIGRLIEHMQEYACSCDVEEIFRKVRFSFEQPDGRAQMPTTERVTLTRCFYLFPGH", "test": "Enzyme assay with UV-visible substrate (visible ICE assay, Succinyl-Tyr-Val-Ala-Asp-pNitroanilide)", "type": "biochemical", "summary_of_the_method": "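Read-out is the rate of pNA chromophore release (mOD/min, linear fit) monitored at 405-603 nm over 20 min at 37° C. Substrate was succinyl-Tyr-Val-Ala-Asp-pNitroanilide, added after a 15 min room-temperature preincubation of ICE with inhibitor.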"}, "[2]": {"test_system": "IL-1β, human peripheral blood mononuclear cells (PBMC)", "test": "PBMC cell assay: IL-1β assay with human PBMC or enriched adherent mononuclear cells, LPS-stimulated", "type": "cell-based", "settings": "Homo sapiens, PBMC", "summary_of_the_method": "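Buffy-coat human PBMC at 6×10^6 cells/ml, or adherent monocytes enriched by 1 h adherence (2.5−3.0×10^5 cells/well), are given 5–6 compound dilutions bracketing the ICE Ki (final DMSO 0.1%) plus LPS at a final 5 ng/ml. They are incubated 16–18 hr at 37 °C, 5% CO2, and supernatant mature IL-1β is measured by ELISA, with duplicate cultures and duplicate ELISAs.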"}, "[3]": {"test": "In vivo rat clearance assay", "settings": "plasma, iv", "method": "In Vivo Rat Clearance Assay\nCannulations of the jugular and carotid vessels of rats under anesthesia were performed one day prior to the pharmacokinetic study. M. J. Free, R. A. Jaffee; ‘Cannulation techniques for the collection blood and other bodily fluids’; in: Animal Models; p. 480-495; N. J. Alexander, Ed.; Academic Press; (1978). Drug (10 mg/mL) was administered via the jugular vein in a vehicle usually consisting of: propylene glycol/saline, containing 100 mM sodium bicarbonate in a 1:1 ratio. Animals were dosed with 10-20 mg drug/kg and blood samples were drawn at 0, 2, 5, 7, 10, 15, 20, 30, 60, and 90 minutes from an indwelling carotid catheter. The blood was centrifuged to plasma and stored at −20° C. until analysis. Pharmacokinetic analysis of data was performed by non-linear regression using standard software such as RStrip (MicroMath Software, UT) and/or Pcnonlin (SCI Software, NC) to obtain clearance values.\nRat plasma was extracted with an equal volume of acetonitrile (containing 0.1% TFA). Samples were then centrifuged at approximately 1,000×g and the supernatant analyzed by gradient HPLC. A typical assay procedure is described below.\nA standard curve was run at 20, 10, 5, 2 and 1 μg/mL concentrations."}, "[4]": {"test_system": "IL-1β production, LPS-challenged mice", "test": "In vivo acute assay for efficacy as anti-inflammatory agent: LPS-induced IL-1β production in mice", "design": "species or system mouse", "settings": "Mus musculus, po, LPS challenged mice, compound PO, 50 mg/kg, read-out: percent inhibition of IL-1β production", "summary_of_the_method": "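CD1 mice (n=6) were challenged with LPS 20 mg/kg IP and given compound IP in olive oil:DMSO:ethanol (90:5:5) 1 h after LPS, or at the time of challenge for some analogs. Blood was taken 7 h after LPS and serum IL-1β was measured by ELISA. Oral gavage at 50 mg/kg was also tested.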"}}, "note": "Where two headings read alike, the source gives them in different places."}
{"smiles": "O=C[C@H](CC(=O)O)NC(=O)[C@@H]1CCCN2CCC[C@H](NC(=O)CCc3ccccc3)C(=O)N12", "note": "[Compound 47b, [3S(1S,9S)]3-(Octahydro-10-oxo-9-(3-phenylpropionylamino)-6H-pyridazino-[1,2-a][1,2]diazepine-1-carboxamido)-4-oxobutanoic acid]", "values": [{"measurement": "IC50", "setting": "IL-1β, human whole blood", "value": "< 0.6", "unit": "µM"}, {"measurement": "clearance", "setting": "[1]", "value": 338, "unit": "mL/min/kg"}, {"measurement": "melting point", "value": "87 to 90", "unit": "°C"}]}
{"smiles": "O=C[C@H](CCC(=O)O)NC(=O)[C@@H]1CCCN2C(=O)CC[C@H](NC(=O)c3ccccc3)C(=O)N12", "note": "[Compound 235e, [4S,(1S,9S)]-4-[9-(Benzoylamino)-6,10-dioxo-1,2,3,4,7,8,9,10-octahydro-6H-pyridazino-[1,2-a][1,2]diazepine-1-carboxamido]-5-oxopentanoic acid]", "values": [{"measurement": "Ki", "setting": "ICE; Table 5", "value": 0.51, "unit": "µM"}, {"measurement": "IC50", "setting": "[2]; * = values obtained upon reassay", "value": 4.75, "unit": "µM"}, {"measurement": "clearance", "setting": "[1]", "value": 36, "unit": "mL/min/kg"}, {"measurement": "melting point", "value": "142 °C (dec.)"}]}
{"smiles": "O=C[C@H](CC(=O)O)NC(=O)[C@@H]1CCCN2CCC[C@@H](NC(=O)c3ccccc3)C(=O)N12", "note": "[Compound 246b, [3S(1S,9R)]3-(9-Benzoylamino-1,2,3,4,7,8,9,10-octahydro-10-oxo-6H-pyridazino[1,2-a][1,2]diazepine-1-carboxamido)-4-oxobutanoic acid]", "values": [{"measurement": "Ki", "setting": "ICE; Table 17", "value": 30, "unit": "µM"}, {"measurement": "IC50", "setting": "[2]; Table 17", "value": "> 30", "unit": "µM"}, {"measurement": "clearance", "setting": "[1]; Table 17", "value": 87, "unit": "mL/min/kg"}, {"measurement": "melting point", "value": "115 to 119", "unit": "°C"}]}
{"smiles": "COC(=O)N[C@H]1CCC(=O)N2CCC[C@@H](C(=O)N[C@@H](CC(=O)O)C(=O)COc3cccnc3)N2C1=O", "note": "[Compound 283c, [3S(1S,9S)]3-[6,10-Dioxo-9-(methoxycarbonylamino)-1,2,3,4,7,8,9,10-octahydro-6H-pyridazino[1,2-a][1,2]diazepine-1-carboxamido]-4-oxo-5-(3-pyridinyloxy)pentanoic acid]", "values": [{"measurement": "IC50", "setting": "[2]; Table 17", "value": 4, "unit": "µM"}, {"measurement": "clearance", "setting": "[3]; Table 17", "value": 50, "unit": "mL/min/kg"}, {"measurement": "melting point", "value": "90 to 105", "unit": "°C"}]}
{"smiles": "O=C[C@H](CC(=O)O)NC(=O)[C@@H]1CCCN2C(=O)CC[C@H](NC(=O)c3ccc(O)cc3)C(=O)N12", "note": "[Compound 456]", "values": [{"measurement": "Ki", "setting": "ICE; Table 5", "value": 0.0045, "unit": "µM"}, {"measurement": "clearance", "setting": "[3]; 10-20 mg/kg", "value": 12.7, "unit": "mL/min/kg"}, {"measurement": "inhibition at 50 mg/kg", "setting": "[4]; 0 h, administered 0 h relative to time of LPS challenge", "value": 69, "unit": "%"}, {"measurement": "inhibition at 50 mg/kg", "setting": "[4]; 1 h, administered +1 h relative to time of LPS challenge", "value": 56, "unit": "%"}, {"measurement": "inhibition at 50 mg/kg", "setting": "[4]; 2 h, administered −2 h relative to time of LPS challenge", "value": 41, "unit": "%"}, {"measurement": "melting point", "value": "> 260", "unit": "°C"}]}
{"smiles": "COc1ccc(C(=O)NN2CCC(=O)N3CCC[C@@H](C(=O)N[C@H](C=O)CC(=O)O)N3C2=O)cc1", "note": "[Compound 1052, [3S(4S)]3-[6,10-Dioxo-7-(4-methoxybenzoylamino)-octahydro-6H-pyridazino[1,2-a][1,2,4]triazepine-4-carboxamido]-4-oxobutanoic acid]", "values": [{"measurement": "Ki", "setting": "ICE; Table 17", "value": 0.1, "unit": "µM"}, {"measurement": "IC50", "setting": "[2]; Table 17", "value": 2.5, "unit": "µM"}, {"measurement": "clearance", "setting": "[3]; Table 17", "value": 16, "unit": "mL/min/kg"}, {"measurement": "melting point", "value": "138 to 142", "unit": "°C"}]}
{"smiles": "O=C[C@H](CC(=O)O)NC(=O)[C@@H]1CCCN2C(=O)CCN(NC(=O)Cc3ccccc3)C(=O)N12", "note": "[Compound 1095, [3S(4S)]3-(6,10-Dioxo-1,2,3,4,7,8,9,10-octahydro-7-phenylacetylamino-6H-pyridazino[1,2-a][1,2,4]triazepine-4-carboxamido)-4-oxobutanoic acid]", "values": [{"measurement": "Ki", "setting": "ICE; Table 17", "value": 0.36, "unit": "µM"}, {"measurement": "IC50", "setting": "[2]; Table 17", "value": 6, "unit": "µM"}, {"measurement": "clearance", "setting": "[3]; Table 17", "value": 28, "unit": "mL/min/kg"}, {"measurement": "melting point", "value": "180 to 186", "unit": "°C"}]}
